From patent US10004701B2, “Methods and compositions for treating infection” (UNIVERSITY OF ROCHESTER, priority 2012, dated 2018)
Counter-ions that a name gives are not always drawn. Like-named read-outs stand apart in the source and are kept apart here.

Key:
Assay in all cases: AK assay 384-well format, Prestwick library screening
[1] = test system: S. aureus strain USA300-0114; type: cell-based, Staphylococcus aureus; settings: 50 μM final drug concentration; for fold induction at 50 µM: Staphylococcus aureus, USA300, 3 h
[2] = test system: K. pneumoniae; type: cell-based, Klebsiella pneumoniae; settings: 50 μM final drug concentration; for fold induction at 50 µM: Klebsiella pneumoniae, 3 h
[3] = test system: E. coli; type: cell-based, Escherichia coli; settings: 50 μM final drug concentration; for fold induction at 50 µM: Escherichia coli, 3 h
[4] = test system: A. baumannii strain 98-37-09; type: cell-based, Acinetobacter baumannii; settings: 50 μM final drug concentration; for fold induction at 50 µM: Acinetobacter baumannii, 983709, 3 h
[5] = test system: P. aeruginosa; type: cell-based, Pseudomonas aeruginosa; settings: 50 μM final drug concentration; for fold induction at 50 µM: Pseudomonas aeruginosa, 3 h
[6] = test system: E. cloacae; type: cell-based, Enterobacter cloacae; settings: for fold induction at 50 µM: Enterobacter cloacae, 3 h
[7] = test system: E. faecium; type: cell-based, Enterococcus faecium; settings: 50 μM final drug concentration; for fold induction at 50 µM: Enterococcus faecium, 3 h
[8] = planktonic S. aureus, […], read-out: AK-based Prestwick Library Screening Results, S. aureus (increase in extracellular AK activity)
[9] = planktonic K. pneumoniae, […], read-out: AK-based Prestwick Library Screening Results, K. pneumoniae (increase in extracellular AK activity)
[10] = planktonic E. coli, […], read-out: AK-based Prestwick Library Screening Results, E. coli (increase in extracellular AK activity)
[11] = planktonic A. baumannii, […], read-out: AK-based Prestwick Library Screening Results, A. baumannii (increase in extracellular AK activity)
[12] = planktonic P. aeruginosa, […], read-out: AK-based Prestwick Library Screening Results, P. aeruginosa (increase in extracellular AK activity)
[13] = planktonic E. cloacae, 50 μM final drug concentration, […], read-out: AK-based Prestwick Library Screening Results, E. cloacae (increase in extracellular AK activity)
[14] = planktonic E. faecium, […], read-out: AK-based Prestwick Library Screening Results, E. faecium (increase in extracellular AK activity)

`CCN1C[C@]2(COC)[C@H](O)C[C@H](OC)[C@@]34[C@@H]5C[C@@]6(O)[C@H](OC(=O)c7ccccc7)[C@@H]5[C@@](OC(C)=O)([C@@H]([C@H](OC)[C@H]23)[C@@H]14)[C@@H](O)[C@@H]6OC` [Aconitine] showed a fold induction at 50 µM [1, 8] of 0.5, a fold induction at 50 µM [2, 9] of 0.5 and a fold induction at 50 µM [3, 10] of 0.6. It also gave a fold induction at 50 µM [4, 11] of 0.6, a fold induction at 50 µM [5, 12] of 0.5 and a fold induction at 50 µM [6, 13] of 0.6. For the same compound, the fold induction at 50 µM [7, 14] was 0.9.
`Nc1nc2c(ncn2COCCO)c(=O)[nH]1` [Acyclovir] gave a fold induction at 50 µM ([1]; 384-well format, cutoff for positive-scoring molecules 3-fold increase, read-out: AK-based Prestwick Library Screening Results, S. aureus (increase in extracellular AK activity)) of 0.5, a fold induction at 50 µM ([2]; 384-well format, cutoff for positive-scoring molecules 3-fold increase, read-out: AK-based Prestwick Library Screening Results, K. pneumoniae (increase in extracellular AK activity)) of 0.5 and a fold induction at 50 µM ([3]; 384-well format, cutoff for positive-scoring molecules 3-fold increase, read-out: AK-based Prestwick Library Screening Results, E. coli (increase in extracellular AK activity)) of 0.5. It also gave a fold induction at 50 µM ([4]; 384-well format, cutoff for positive-scoring molecules 3-fold increase, read-out: AK-based Prestwick Library Screening Results, A. baumannii (increase in extracellular AK activity)) of 0.4, a fold induction at 50 µM ([5]; 384-well format, cutoff for positive-scoring molecules 3-fold increase, read-out: AK-based Prestwick Library Screening Results, P. aeruginosa (increase in extracellular AK activity)) of 0.4 and a fold induction at 50 µM ([6]; 50 μM final drug concentration, 384-well format, cutoff for positive-scoring molecules 3-fold increase, read-out: AK-based Prestwick Library Screening Results, E. cloacae (increase in extracellular AK activity)) of 0.3. It also gave a fold induction at 50 µM ([7]; 384-well format, cutoff for positive-scoring molecules 3-fold increase, read-out: AK-based Prestwick Library Screening Results, E. faecium (increase in extracellular AK activity)) of 0.9.
In the case of `NC12CC3CC(CC(C3)C1)C2.NC12CC3CC(CC(C3)C1)C2.O=C(O)/C=C/C(=O)O` [Adamantamine fumarate], the “AK-based Prestwick Library Screening Results: S. aureus (increase in extracellular AK activity)” value ([1]; planktonic S. aureus, 384-well, cutoff for positive-scoring molecules 3-fold increase) is reported as 0.4, the “AK-based Prestwick Library Screening Results: K. pneumoniae (increase in extracellular AK activity)” value ([2]; planktonic K. pneumoniae, 384-well, cutoff for positive-scoring molecules 3-fold increase) is reported as 0.5 and the “AK-based Prestwick Library Screening Results: E. coli (increase in extracellular AK activity)” value ([3]; planktonic E. coli, 384-well, cutoff for positive-scoring molecules 3-fold increase) is reported as 0.5. For the same compound, the “AK-based Prestwick Library Screening Results: A. baumannii (increase in extracellular AK activity)” value ([4]; planktonic A. baumannii, 384-well, cutoff for positive-scoring molecules 3-fold increase) was 0.5, the “AK-based Prestwick Library Screening Results: P. aeruginosa (increase in extracellular AK activity)” value ([5]; planktonic P. aeruginosa, 384-well, cutoff for positive-scoring molecules 3-fold increase) was 0.4 and the “AK-based Prestwick Library Screening Results: E. cloacae (increase in extracellular AK activity)” value ([6]; planktonic E. cloacae, 50 μM final drug concentration, 384-well, cutoff for positive-scoring molecules 3-fold increase) was 0.4. For the same compound, the “AK-based Prestwick Library Screening Results: E. faecium (increase in extracellular AK activity)” value ([7]; planktonic E. faecium, 384-well, cutoff for positive-scoring molecules 3-fold increase) was 0.9.
For `Nc1ncnc2c1ncn2[C@@H]1O[C@H](COP(=O)(O)O)[C@@H](O)[C@H]1O` [Adenosine 5′-monophosphate monohydrate], the fold induction at 50 µM [1, 8] was 0.6, the fold induction at 50 µM [2, 9] was 0.6 and the fold induction at 50 µM [3, 10] was 0.8. The fold induction at 50 µM [4, 11] was 0.7, the fold induction at 50 µM [5, 12] was 0.8 and the fold induction at 50 µM [6, 13] was 1.2. It also gave a fold induction at 50 µM [7, 14] of 0.8.
With `CCN(CC)CCOC(=O)C(c1ccccc1)c1ccccc1` [Adiphenine hydrochloride] the fold induction at 50 µM ([1]; planktonic S. aureus, 384-well, cutoff for positive-scoring molecules 3-fold increase, read-out: AK-based Prestwick Library Screening Results: S. aureus (increase in extracellular AK activity)) was 1.3, the fold induction at 50 µM ([2]; planktonic K. pneumoniae, 384-well, cutoff for positive-scoring molecules 3-fold increase, read-out: AK-based Prestwick Library Screening Results: K. pneumoniae (increase in extracellular AK activity)) was 1 and the fold induction at 50 µM ([3]; planktonic E. coli, 384-well, cutoff for positive-scoring molecules 3-fold increase, read-out: AK-based Prestwick Library Screening Results: E. coli (increase in extracellular AK activity)) was 1.2. For the same compound, the fold induction at 50 µM ([4]; planktonic A. baumannii, 384-well, cutoff for positive-scoring molecules 3-fold increase, read-out: AK-based Prestwick Library Screening Results: A. baumannii (increase in extracellular AK activity)) was 1.3, the fold induction at 50 µM ([5]; planktonic P. aeruginosa, 384-well, cutoff for positive-scoring molecules 3-fold increase, read-out: AK-based Prestwick Library Screening Results: P. aeruginosa (increase in extracellular AK activity)) was 0.9 and the fold induction at 50 µM ([6]; planktonic E. cloacae, 50 μM final drug concentration, 384-well, cutoff for positive-scoring molecules 3-fold increase, read-out: AK-based Prestwick Library Screening Results: E. cloacae (increase in extracellular AK activity)) was 1.5. For the same compound, the fold induction at 50 µM ([7]; planktonic E. faecium, 384-well, cutoff for positive-scoring molecules 3-fold increase, read-out: AK-based Prestwick Library Screening Results: E. faecium (increase in extracellular AK activity)) was 1.
With `C[C@]12CCC(=O)C=C1CC[C@@H]1[C@@H]2C(=O)C[C@]2(C)C(=O)CC[C@@H]12` [Adrenosterone] the “AK-based Prestwick Library Screening Results, S. aureus (fold increase in extracellular AK activity)” value ([1]; planktonic, […]) was 0.6, the “AK-based Prestwick Library Screening Results, K. pneumoniae (fold increase in extracellular AK activity)” value ([2]; planktonic, […]) was 0.6 and the “AK-based Prestwick Library Screening Results, E. coli (fold increase in extracellular AK activity)” value ([3]; planktonic, […]) was 0.7. For the same compound, the “AK-based Prestwick Library Screening Results, A. baumannii (fold increase in extracellular AK activity)” value ([4]; planktonic, […]) was 0.8, the “AK-based Prestwick Library Screening Results, P. aeruginosa (fold increase in extracellular AK activity)” value ([5]; planktonic, […]) was 0.6 and the “AK-based Prestwick Library Screening Results, E. cloacae (fold increase in extracellular AK activity)” value ([6]; 50 μM final drug concentration, planktonic, […]) was 1.2. For the same compound, the “AK-based Prestwick Library Screening Results, E. faecium (fold increase in extracellular AK activity)” value ([7]; planktonic, […]) was 0.9.
For `COC(=O)C1=CO[C@@H](C)[C@H]2CN3CCc4c([nH]c5ccccc45)[C@@H]3C[C@H]12.Cl` [Ajmalicine hydrochloride], the “AK-based Prestwick Library Screening Results, S. aureus (increase in extracellular AK activity)” value ([1]; planktonic S. aureus, cutoff for positive-scoring molecules 3-fold increase) was 0.5, the “AK-based Prestwick Library Screening Results, K. pneumoniae (increase in extracellular AK activity)” value ([2]; planktonic K. pneumoniae, cutoff for positive-scoring molecules 3-fold increase) was 0.7 and the “AK-based Prestwick Library Screening Results, E. coli (increase in extracellular AK activity)” value ([3]; planktonic E. coli, cutoff for positive-scoring molecules 3-fold increase) was 0.9. The “AK-based Prestwick Library Screening Results, A. baumannii (increase in extracellular AK activity)” value ([4]; planktonic A. baumannii, cutoff for positive-scoring molecules 3-fold increase) was 0.9, the “AK-based Prestwick Library Screening Results, P. aeruginosa (increase in extracellular AK activity)” value ([5]; planktonic P. aeruginosa, cutoff for positive-scoring molecules 3-fold increase) was 0.9 and the “AK-based Prestwick Library Screening Results, E. cloacae (increase in extracellular AK activity)” value ([6]; planktonic E. cloacae, 50 μM final drug concentration, cutoff for positive-scoring molecules 3-fold increase) was 1.2. The “AK-based Prestwick Library Screening Results, E. faecium (increase in extracellular AK activity)” value ([7]; planktonic E. faecium, cutoff for positive-scoring molecules 3-fold increase) was 0.9.
`CC[C@H]1[C@@H]2C[C@H]3[C@@H]4N(C)c5ccccc5[C@]45C[C@@H]([C@H]2[C@H]5O)N3[C@@H]1O` [Ajmaline] showed a fold induction at 50 µM ([1]; planktonic, […], read-out: AK-based Prestwick Library Screening Results, S. aureus (fold increase in extracellular AK activity)) of 1, a fold induction at 50 µM ([2]; planktonic, […], read-out: AK-based Prestwick Library Screening Results, K. pneumoniae (fold increase in extracellular AK activity)) of 0.9 and a fold induction at 50 µM ([3]; planktonic, […], read-out: AK-based Prestwick Library Screening Results, E. coli (fold increase in extracellular AK activity)) of 1.2. For the same compound, the fold induction at 50 µM ([4]; planktonic, […], read-out: AK-based Prestwick Library Screening Results, A. baumannii (fold increase in extracellular AK activity)) was 1.1, the fold induction at 50 µM ([5]; planktonic, […], read-out: AK-based Prestwick Library Screening Results, P. aeruginosa (fold increase in extracellular AK activity)) was 1.1 and the fold induction at 50 µM ([6]; 50 μM final drug concentration, planktonic, […], read-out: AK-based Prestwick Library Screening Results, E. cloacae (fold increase in extracellular AK activity)) was 1.6. It also gave a fold induction at 50 µM ([7]; planktonic, […], read-out: AK-based Prestwick Library Screening Results, E. faecium (fold increase in extracellular AK activity)) of 1.1.
Compound `CCCSc1ccc2nc(NC(=O)OC)[nH]c2c1` [Albendazole] has a fold induction at 50 µM ([1]; 384-well format, […], read-out: AK-based Prestwick Library Screening Results, S. aureus (increase in extracellular AK activity)) of 0.2, a fold induction at 50 µM ([2]; 384-well format, […], read-out: AK-based Prestwick Library Screening Results, K. pneumoniae (increase in extracellular AK activity)) of 0.3 and a fold induction at 50 µM ([3]; 384-well format, […], read-out: AK-based Prestwick Library Screening Results, E. coli (increase in extracellular AK activity)) of 0.3. It also gave a fold induction at 50 µM ([4]; 384-well format, […], read-out: AK-based Prestwick Library Screening Results, A. baumannii (increase in extracellular AK activity)) of 0.3, a fold induction at 50 µM ([5]; 384-well format, […], read-out: AK-based Prestwick Library Screening Results, P. aeruginosa (increase in extracellular AK activity)) of 0.3 and a fold induction at 50 µM ([6]; read-out: AK-based Prestwick Library Screening Results, E. cloacae (increase in extracellular AK activity)) of 0.4. It also gave a fold induction at 50 µM ([7]; 384-well format, […], read-out: AK-based Prestwick Library Screening Results, E. faecium (increase in extracellular AK activity)) of 0.5.
